System: MV-4-11 cells
Experiment: Gene expression microarray analysis (Affymetrix PrimeView) and GSEA
Type: cell-based, human
Design: RFU PODN (11730768_x_at) / Fold change /veh PODN (11730768_x_at) / RFU LINC00158 (11744669_a_at) / Fold change /veh LINC00158 (11744669_a_at) / RFU DUSP10 (11751237_a_at) / Fold change /veh DUSP10 (11751237_a_at) / RFU ID3 (11757404_x_at) / Fold change /veh ID3 (11757404_x_at) / RFU PLEKHG5 (11737974_s_at) / Fold change /veh PLEKHG5 (11737974_s_at) / RFU LRRC4B (11730491_at) / Fold change /veh LRRC4B (11730491_at) / RFU GIMAP4 (11747438_a_at) / Fold change /veh GIMAP4 (11747438_a_at) / RFU KRT8 (11758183_x_at) / Fold change /veh KRT8 (11758183_x_at) / RFU CNN1 (11734310_a_at) / Fold change /veh CNN1 (11734310_a_at) / RFU VPS37D (11726825_at) / Fold change /veh VPS37D (11726825_at) / RFU C10orf10 (11716522_x_at) / Fold change /veh C10orf10 (11716522_x_at) / RFU KIR2DL2 /// KIR2DL4 /// KIR2DL5A /// KIR2DL5B /// KIR2DS1 /// KIR2DS2 /// KIR2DS3 /// KIR2DS4 /// KIR3DL3 /// KIR3DL3 /// KIR3DS1 (11738374_at) / Fold change /veh KIR2DL2 /// KIR2DL4 /// KIR2DL5A /// KIR2DL5B /// KIR2DS1 /// KIR2DS2 /// KIR2DS3 /// KIR2DS4 /// KIR3DL3 /// KIR3DL3 /// KIR3DS1 (11738374_at) / RFU C1QL1 (11718748_at) / Fold change /veh C1QL1 (11718748_at) / RFU TMPRSS4 (11747572_a_at) / Fold change /veh TMPRSS4 (11747572_a_at) / RFU HAMP (11756126_x_at) / Fold change /veh HAMP (11756126_x_at) / RFU RNFT2 (11725882_a_at) / Fold change /veh RNFT2 (11725882_a_at) / RFU NR4A2 (11747474_a_at) / Fold change /veh NR4A2 (11747474_a_at) / RFU ABCC12 (11746883_a_at) / Fold change /veh ABCC12 (11746883_a_at) / RFU TMEM136 (11760407_x_at) / Fold change /veh TMEM136 (11760407_x_at) / RFU CLDN22 /// WWC2 (11732394_at) / Fold change /veh CLDN22 /// WWC2 (11732394_at) / RFU HLA-DPB1 (11760878_x_at) / Fold change /veh HLA-DPB1 (11760878_x_at) / RFU SPINT1 (11716480_a_at) / Fold change /veh SPINT1 (11716480_a_at) / RFU GAP43 (11754022_s_at) / Fold change /veh GAP43 (11754022_s_at) / RFU A4GNT (11735810_at) / Fold change /veh A4GNT (11735810_at) / RFU PRB3 (11715151_x_at) / Fold change /veh PRB3 (11715151_x_at) / RFU TUBB4B (11761932_at) / Fold change /veh TUBB4B (11761932_at) / RFU CAPN14 (11732068_a_at) / Fold change /veh CAPN14 (11732068_a_at) / RFU TMCC2 (11721928_a_at) / Fold change /veh TMCC2 (11721928_a_at) / RFU IRGQ (11745062_a_at) / Fold change /veh IRGQ (11745062_a_at) / RFU FAM174B (11720279_a_at) / Fold change /veh FAM174B (11720279_a_at) / RFU TMPRSS4 (11748680_a_at) / Fold change /veh TMPRSS4 (11748680_a_at) / RFU FAM212B (11763350_a_at) / Fold change /veh FAM212B (11763350_a_at) / RFU PLEKHG5 (11743358_a_at) / Fold change /veh PLEKHG5 (11743358_a_at) / RFU ZSCAN30 (11745921_a_at) / Fold change /veh ZSCAN30 (11745921_a_at) / RFU CMKLR1 (11741424_a_at) / Fold change /veh CMKLR1 (11741424_a_at) / RFU LOC101060620 /// MAPK8IP1 (11723275_at) / Fold change /veh LOC101060620 /// MAPK8IP1 (11723275_at) / RFU SPTSSB (11747773_x_at) / Fold change /veh SPTSSB (11747773_x_at) / RFU PRSS12 (11739890_at) / Fold change /veh PRSS12 (11739890_at) / RFU BIN1 (11741810_x_at) / Fold change /veh BIN1 (11741810_x_at) / RFU WNT11 (11732464_a_at) / Fold change /veh WNT11 (11732464_a_at) / RFU C10orf10 (11716521_a_at) / Fold change /veh C10orf10 (11716521_a_at) / RFU C5orf56 (11738089_at) / Fold change /veh C5orf56 (11738089_at) / RFU CYB561 (11721691_x_at) / Fold change /veh CYB561 (11721691_x_at) / RFU ANKRD19P (11752326_a_at) / Fold change /veh ANKRD19P (11752326_a_at) / RFU OR2T12 /// OR2T33 /// OR2T8 (11738714_s_at) / Fold change /veh OR2T12 /// OR2T33 /// OR2T8 (11738714_s_at) / RFU VCAN (11748164_a_at) / Fold change /veh VCAN (11748164_a_at) / RFU JSRP1 (11732532_at) / Fold change /veh JSRP1 (11732532_at) / RFU KRTAP10-11 (11738290_x_at) / Fold change /veh KRTAP10-11 (11738290_x_at) / RFU MYO3A (11730013_a_at) / Fold change /veh MYO3A (11730013_a_at) / RFU EBF3 (11725865_a_at) / Fold change /veh EBF3 (11725865_a_at) / RFU CAMK2N1 (11719241_x_at) / Fold change /veh CAMK2N1 (11719241_x_at) / RFU C5orf56 (11738088_a_at) / Fold change /veh C5orf56 (11738088_a_at) / RFU OLFML3 (11715873_a_at) / Fold change /veh OLFML3 (11715873_a_at) / RFU LOC100653217 /// NTM (11731650_a_at) / Fold change /veh LOC100653217 /// NTM (11731650_a_at) / RFU MAPK11 (11762145_a_at) / Fold change /veh MAPK11 (11762145_a_at) / RFU FIZ1 (11724087_x_at) / Fold change /veh FIZ1 (11724087_x_at) / RFU OASL (11726364_x_at) / Fold change /veh OASL (11726364_x_at) / RFU SOX15 (11748057_x_at) / Fold change /veh SOX15 (11748057_x_at) / RFU CD79A (11719716_a_at) / Fold change /veh CD79A (11719716_a_at) / RFU HIST1H1D (11736915_at) / Fold change /veh HIST1H1D (11736915_at) / RFU CASKIN2 (11723855_a_at) / Fold change /veh CASKIN2 (11723855_a_at) / RFU LOC730098 (11760151_x_at) / Fold change /veh LOC730098 (11760151_x_at) / RFU OR4N2 (11742367_at) / Fold change /veh OR4N2 (11742367_at) / RFU PRRT2 (11749266_a_at) / Fold change /veh PRRT2 (11749266_a_at) / RFU SNX32 (11753110_a_at) / Fold change /veh SNX32 (11753110_a_at) / RFU CDHR5 (11726645_a_at) / Fold change /veh CDHR5 (11726645_a_at) / RFU RCAN1 (11760418_a_at) / Fold change /veh RCAN1 (11760418_a_at) / RFU FAM167A (11723789_a_at) / Fold change /veh FAM167A (11723789_a_at) / RFU FAM26E (11764081_at) / Fold change /veh FAM26E (11764081_at) / RFU ISYNA1 (11749810_s_at) / Fold change /veh ISYNA1 (11749810_s_at) / RFU ACY1 (11761880_at) / Fold change /veh ACY1 (11761880_at) / RFU 11764098_at / Fold change /veh 11764098_at / RFU SAMD14 (11745864_x_at) / Fold change /veh SAMD14 (11745864_x_at) / RFU NPB (11741838_a_at) / Fold change /veh NPB (11741838_a_at) / RFU TMPRSS6 (11731388_a_at) / Fold change /veh TMPRSS6 (11731388_a_at) / RFU KRTAP10-2 (11738614_at) / Fold change /veh KRTAP10-2 (11738614_at) / RFU ARHGAP8 /// PRR5-ARHGAP8 (11727945_x_at) / Fold change /veh ARHGAP8 /// PRR5-ARHGAP8 (11727945_x_at) / RFU KRTAP5-7 /// NADSYN1 (11734609_at) / Fold change /veh KRTAP5-7 /// NADSYN1 (11734609_at) / RFU RASL12 (11751679_a_at) / Fold change /veh RASL12 (11751679_a_at) / RFU CDKN2B (11736163_a_at) / Fold change /veh CDKN2B (11736163_a_at) / RFU PRF1 (11729649_at) / Fold change /veh PRF1 (11729649_at) / RFU, ZNF638 /// ZNF638-IT1 / Fold change vs veh, ZNF638 /// ZNF638-IT1 / RFU, PANK3 / Fold change vs veh, PANK3 / RFU, SH3YL1 / Fold change vs veh, SH3YL1 / RFU, ZEB2 / Fold change vs veh, ZEB2 / RFU, NRIP1 / Fold change vs veh, NRIP1 / RFU, PTTG1IP / Fold change vs veh, PTTG1IP / RFU, CAPN2 / Fold change vs veh, CAPN2 / RFU, MED14 / Fold change vs veh, MED14 / RFU, SNORA58 / Fold change vs veh, SNORA58 / RFU, C1orf63 / Fold change vs veh, C1orf63 / RFU, LRRFIP1 / Fold change vs veh, LRRFIP1 / RFU, NDUFAF7 / Fold change vs veh, NDUFAF7 / RFU, SLC12A2 / Fold change vs veh, SLC12A2 / RFU, IBTK / Fold change vs veh, IBTK / RFU, ESF1 / Fold change vs veh, ESF1 / Fold change vs veh, TMEM50B / RFU, TAOK1 / Fold change vs veh, TAOK1 / RFU, ACBD3 / Fold change vs veh, ACBD3 / RFU, TMA16 / Fold change vs veh, TMA16 / RFU, RWDD3 / Fold change vs veh, RWDD3 / RFU, BCAT1 / Fold change vs veh, BCAT1 / RFU, EDEM3 / Fold change vs veh, EDEM3 / RFU, TMEM33 / Fold change vs veh, TMEM33 / RFU, WDR75 / Fold change vs veh, WDR75 / RFU, AHCTF1 / Fold change vs veh, AHCTF1 / RFU, TFRC / Fold change vs veh, TFRC / RFU, ZDHHC17 / Fold change vs veh, ZDHHC17 / RFU, NOM1 / Fold change vs veh, NOM1 / RFU, ARL8B / Fold change vs veh, ARL8B / RFU, ZBTB11 / Fold change vs veh, ZBTB11 / RFU, TAMM41 / Fold change vs veh, TAMM41 / RFU, KIAA1704 /// LOC100996395 / Fold change vs veh, KIAA1704 /// LOC100996395 / RFU, ING1 / Fold change vs veh, ING1 / RFU, TRMT61B / Fold change vs veh, TRMT61B / RFU, FUBP3 / Fold change vs veh, FUBP3 / RFU, TP53 / Fold change vs veh, TP53 / RFU, TNKS2 / Fold change vs veh, TNKS2 / RFU, ZFP14 / Fold change vs veh, ZFP14 / RFU, ACTR2 / Fold change vs veh, ACTR2 / RFU, PPP3R1 / Fold change vs veh, PPP3R1 / RFU, PIK3R1 / Fold change vs veh, PIK3R1 / RFU, HNRNPA1 / Fold change vs veh, HNRNPA1 / RFU, RNF170 / Fold change vs veh, RNF170 / RFU, ZNF28 / Fold change vs veh, ZNF28 / RFU, RNGTT / Fold change vs veh, RNGTT / RFU, OGT / Fold change vs veh, OGT / RFU, BRD1 / Fold change vs veh, BRD1 / RFU, MARS / Fold change vs veh, MARS / RFU, ZNF655 / Fold change vs veh, ZNF655 / RFU, FAHD1 / Fold change vs veh, FAHD1 / RFU, BDP1 / Fold change vs veh, BDP1 / RFU, LRRCC1 / Fold change vs veh, LRRCC1 / RFU, ARID1A / Fold change vs veh, ARID1A / RFU, ZNF146 / Fold change vs veh, ZNF146 / RFU, ZNF330 / Fold change vs veh, ZNF330 / RFU, GPN3 / Fold change vs veh, GPN3 / RFU, C9orf123 / Fold change vs veh, C9orf123 / RFU, N4BP2L2 / Fold change vs veh, N4BP2L2 / RFU, ARFIP1 / Fold change vs veh, ARFIP1 / RFU, FAM179B / Fold change vs veh, FAM179B / RFU, BCL10 / Fold change vs veh, BCL10 / RFU, UHRF1BP1L / Fold change vs veh, UHRF1BP1L / RFU, BET1 / Fold change vs veh, BET1 / RFU, CNOT2 / Fold change vs veh, CNOT2 / RFU, ZNF268 / Fold change vs veh, ZNF268 / Fold change vs veh, ZNF507 / RFU, DGCR2 / Fold change vs veh, DGCR2 / RFU, WDSUB1 / Fold change vs veh, WDSUB1 / Fold change vs veh, HSP90B1 /// MIR3652 / RFU, ADSS / Fold change vs veh, ADSS / RFU, GK / Fold change vs veh, GK / RFU, ZNF148 / Fold change vs veh, ZNF148 / RFU, TAF9 / Fold change vs veh, TAF9 / RFU, SLC1A5 / Fold change vs veh, SLC1A5 / RFU, SLMO2 / Fold change vs veh, SLMO2 / RFU, ABCC4 / Fold change vs veh, ABCC4 / RFU, LOC101060439 /// RAP1B / Fold change vs veh, LOC101060439 /// RAP1B / RFU, RFX7 / Fold change vs veh, RFX7 / RFU, GTPBP10 / Fold change vs veh, GTPBP10 / RFU, CNEP1R1 / Fold change vs veh, CNEP1R1 / RFU, BIVM-ERCC5 /// ERCC5 / Fold change vs veh, BIVM-ERCC5 /// ERCC5 / RFU, ILF3 / Fold change vs veh, ILF3 / RFU 11762660_at / Fold change /veh 11762660_at / RFU VCAN (11757783_s_at) / Fold change /veh VCAN (11757783_s_at) / RFU DDX43 (11728927_at) / Fold change /veh DDX43 (11728927_at) / RFU KRT8 (11758188_x_at) / Fold change /veh KRT8 (11758188_x_at) / RFU NKD1 (11759106_at) / Fold change /veh NKD1 (11759106_at) / RFU SRD5A1 (11742802_a_at) / Fold change /veh SRD5A1 (11742802_a_at) / RFU TPSAB1 /// TPSB2 (11721975_s_at) / Fold change /veh TPSAB1 /// TPSB2 (11721975_s_at) / RFU GSTM3 (11746129_a_at) / Fold change /veh GSTM3 (11746129_a_at) / RFU IL23R (11737362_x_at) / Fold change /veh IL23R (11737362_x_at) / RFU TMEM51 (11727254_a_at) / Fold change /veh TMEM51 (11727254_a_at) / RFU PIWIL2 (11732686_x_at) / Fold change /veh PIWIL2 (11732686_x_at) / RFU ORM1 (11744905_x_at) / Fold change /veh ORM1 (11744905_x_at) / RFU CCDC152 (11743942_at) / Fold change /veh CCDC152 (11743942_at) / RFU ECM1 (11717891_a_at) / Fold change /veh ECM1 (11717891_a_at) / RFU IL23R (11748794_a_at) / Fold change /veh IL23R (11748794_a_at) / RFU TNFAIP8L3 (11732012_x_at) / Fold change /veh TNFAIP8L3 (11732012_x_at) / RFU MBOAT4 (11741988_at) / Fold change /veh MBOAT4 (11741988_at) / RFU 11764193_at / Fold change /veh 11764193_at / RFU TMEM53 (11763286_at) / Fold change /veh TMEM53 (11763286_at) / RFU MAGEB2 (11727129_at) / Fold change /veh MAGEB2 (11727129_at) / RFU TMEM200A (11744735_a_at) / Fold change /veh TMEM200A (11744735_a_at) / RFU CCDC152 (11751479_a_at) / Fold change /veh CCDC152 (11751479_a_at) / RFU FAM211A (11726209_a_at) / Fold change /veh FAM211A (11726209_a_at) / RFU RGS16 (11746705_a_at) / Fold change /veh RGS16 (11746705_a_at) / RFU VCAN (11755009_s_at) / Fold change /veh VCAN (11755009_s_at) / RFU RHOB (11743442_s_at) / Fold change /veh RHOB (11743442_s_at) / RFU RGS16 (11720943_a_at) / Fold change /veh RGS16 (11720943_a_at) / RFU RGS16 (11720944_at) / Fold change /veh RGS16 (11720944_at) / RFU, VPS4B / Fold change vs veh, VPS4B / RFU, CREB1 / Fold change vs veh, CREB1 / RFU, DNAJC13 / Fold change vs veh, DNAJC13 / RFU, GNAQ / Fold change vs veh, GNAQ / RFU, CDK5R1 / Fold change vs veh, CDK5R1 / RFU, ZRANB3 / Fold change vs veh, ZRANB3 / RFU, CUL4A / Fold change vs veh, CUL4A / RFU, CCNY / Fold change vs veh, CCNY / RFU, UFL1 / Fold change vs veh, UFL1 / RFU, COG3 / Fold change vs veh, COG3 / RFU, DIAPH2 / Fold change vs veh, DIAPH2 / RFU, SKA2 / Fold change vs veh, SKA2 / RFU, AFF3 / Fold change vs veh, AFF3 / RFU, LMF1 / Fold change vs veh, LMF1 / RFU, IPO11 / Fold change vs veh, IPO11 / RFU, DFFB / Fold change vs veh, DFFB / RFU, FOXP1 / Fold change vs veh, FOXP1 / RFU, CARD8 / Fold change vs veh, CARD8 / RFU, STRN3 / Fold change vs veh, STRN3 / RFU, ADK / Fold change vs veh, ADK / RFU, RASSF2 / Fold change vs veh, RASSF2 / RFU, WIPF1 / Fold change vs veh, WIPF1 / RFU, LARP1B / Fold change vs veh, LARP1B / RFU, RASA1 / Fold change vs veh, RASA1 / RFU, RB1 / Fold change vs veh, RB1 / RFU, PPFIA1 / Fold change vs veh, PPFIA1 / RFU, MAT2A / Fold change vs veh, MAT2A / RFU, CCT5 / Fold change vs veh, CCT5 / RFU, WDR92 / Fold change vs veh, WDR92 / RFU, CUX1 / Fold change vs veh, CUX1 / RFU, TTC7A / Fold change vs veh, TTC7A / RFU, TMEM135 / Fold change vs veh, TMEM135 / RFU, DEPTOR / Fold change vs veh, DEPTOR / RFU, CPM / Fold change vs veh, CPM / RFU, DNAJB6 / Fold change vs veh, DNAJB6 / RFU, CACNA2D3 / Fold change vs veh, CACNA2D3 / RFU, DTX4 / Fold change vs veh, DTX4 / RFU, TFCP2 / Fold change vs veh, TFCP2 / RFU, GMCL1 /// GMCL1P1 / Fold change vs veh, GMCL1 /// GMCL1P1 / RFU, AEBP2 / Fold change vs veh, AEBP2 / RFU, SNHG1 /// SNORD22 /// SNORD25 /// SNORD26 /// SNORD27 /// SNORD28 /// SNORD29 /// SNORD31 / Fold change vs veh, SNHG1 /// SNORD22 /// SNORD25 /// SNORD26 /// SNORD27 /// SNORD28 /// SNORD29 /// SNORD31 / Fold change (Aza/veh), C12orf56 (ProbeSet 11735607_a_at) / Fold change (ACY-1035/veh), C12orf56 (ProbeSet 11735607_a_at) / Fold change (Aza/veh), FGFR1OP (ProbeSet 11751329_s_at) / Fold change (ACY-1035/veh), FGFR1OP (ProbeSet 11751329_s_at) / Fold change (Aza/veh), VPS36 (ProbeSet 11739960_a_at) / Fold change (ACY-1035/veh), VPS36 (ProbeSet 11739960_a_at) / RFU SYPL1 (11715823_x_at) / Fold change /veh SYPL1 (11715823_x_at) / RFU IGFBP7 (11715501_s_at) / Fold change /veh IGFBP7 (11715501_s_at) / RFU REEP3 (11722064_at) / Fold change /veh REEP3 (11722064_at) / RFU IGLL1 (11728026_x_at) / Fold change /veh IGLL1 (11728026_x_at): dose or concentration left out as unconfirmed
Conditions: ProbeSet 11760938_a_at; LIST D

Nc1ccc(-c2cccs2)cc1NC(=O)c1ccc2c(c1)cc(C1CC1)n2CCN1CCOCC1 [ACY-1035]
Fold change vs veh, MAT2A: 0.84
